Results: patent publication US20120135866A1, “INCREASING PLANT VIGOR” (DOW AGROSCIENCES LLC, priority 2007, published 2012)
“Also recorded” adds a separate entry of the source.

Key:
Type in all cases: in vivo
[1] = test system: cotton aphid (CA) Aphis gossypii; assay: Test 1: cotton aphid counts on plants grown from soaked seeds
Description: (§1) Seeds were soaked beginning on T=0 days in solutions of either
(§2) Compound A, imidacloprid, or plain water containing 0.125% (v:v) Tween 20 (check treatment). Compounds were formulated as technical material in water containing 0.125% Tween 20. […] Solution concentrations were 50, 5, 0.5, 0.05 and 0.005 ppm. No evaporation was possible and a significant excess of solution was present to ensure abundant availability of either Compound A or imidacloprid from each solution. On average 20 ml of solution was used to soak groups of seed needed for the seed soaking phase of this test. Seeds were removed from these solutions on T=2 days and planted. Seeds exposed to each unique treatment were germinated as a groups in dedicated shallow plastic cups filled with white sand and containing plain water. Planting of these seeds occurred on T=2 days and the seeds were grown in these shallow cups until T=10 days. Initially 70 ml of water was added to each shallow cup at planting and additional water was added to the cups as needed to keep the sand moist. On T=10 days germinating seedlings were transplanted from the shallow germination cups to individual containers (plastic cups−6 reps per treatment) filled with white sand. Thirty ml of water was used to water the plants following transplanting. After the initial treatment water was added to cups as needed to maintain moisture for plant development. On T=14 days each plant was infested with cotton aphid (CA) Aphis gossypii by transferring a small piece of infested foliage to each test plant. The number of aphids transferred to each plant was uniform based on visual estimation. Plants were rated on T=17 days and T=18 days by counting the number of CA and taking the weight of the each plant. The plant part weighed was the aerial portion of the plant cut off at the surface of the sand. Data were analyzed using analysis of variance with an LSD means separation test (Minitab).
Raw data were not homogeneous and so replicate aphid counts were transformed using a square root count+0.5 transformation.

[2] = test system: plant grown from soaked seeds; assay: Test 1: plant weight (aerial portion) after seed soak
Description: as §1, §2
Treatment number 4 experienced some negative effects associated with excess watering during the phase when these plants were being germinated. […] Only four replicate plants were able to be planted to individual growing cups. […] Prior to conducting an analysis of individual treatment effects (factorial analysis of variance, LSD means separation test P=0.05, Minitab) on weight Treatment 4 (Compound A 0.05 ppm) was removed from the analysis because it was judged to be an outlier based on poor growth as described above. The paired imidacloprid rate (0.05 ppm, No. 9) was also removed to keep the data balanced.

[3] = test system: Corn (Zea mays 'M2T783') seeds; assay: Test 2: fresh plant weight of corn after seed soak
Description: Technical samples of Compound A and imidacloprid were dissolved in water containing 0.125% Tween 20 (V:V). […] The treatment concentrations for Compound A and imidacloprid were 50, 12.5, 3.125, 0.78 and 0.19 ppm. Solutions were prepared in excess and 40 ml was added to 50 ml centrifuge tubes. Corn (Zea mays ‘M2T783’) seeds were inspected for uniform size and undamaged condition and were placed into each centrifuge tube containing specific compound by rate solutions. A treatment of only 0.125% aqueous Tween 20 was used to soak corn seeds and served as the untreated check. Tubes containing seeds and compound solutions were held at room temperature and after […] the seeds were removed from each solution, rinsed and planted into sand in 7.5 cm^2 pots. Tissue paper was placed into the bottom of each pot to keep sand from leaching from the pot. A total of 8 reps of each compound by rate combination were planted for both corn. Eight replicate pots of compound by rate combination were arranged in a completely randomized design on greenhouse carts. This arrangement of treated seeds in pots was placed into the greenhouse and watered over the top as needed. Each cart was equipped with a plastic rack that served to raise the pots up off the cart surface and away from any standing water. The carts were placed in the center of the greenhouse and were rotated 180 degrees daily. After 13 days the carts were moved to the laboratory and the plants were cut off at the soil surface and weighed. Fresh plant weight data were analyzed for homogeneity of variance using Levene's test and further evaluated using one way analysis of variance of individual treatment combinations (compound by rate) and pooled by compound across rates. Means were separated using Tukey's mean separation test with a family-wise error rate of 0.05. All analyses were conducted using Minitab
Corn data were homogeneous based on Levene's test for homgeneity of variance (p=0.116 and p=0.69 respectively). AOV of corn data did indicate a difference (F=3.22, P=0.045, df=2) for pooled compound effects but not for individual treatment effects.

Structure (SMILES): CS(=O)(=NC#N)C(Cl)c1ccc(C(F)(F)F)nc1 (stereo not shown) [Compound A]
- Effect on number of aphids vs check ([1]; Test 1, seed soak, compound main effect): significantly more aphids in the check treatment; also recorded: reduced the number of aphids on plants
- Aphids (#/plant) Rep 1 ([1]; seed soak 0.005 ppm): 72 #/plant
- Aphids (#/plant) Rep 2 ([1]; seed soak 0.005 ppm): 110 #/plant
- Aphids (#/plant) Rep 3 ([1]; seed soak 0.005 ppm): 35 #/plant
- Aphids (#/plant) Rep 4 ([1]; seed soak 0.005 ppm): 70 #/plant
- Aphids (#/plant) Rep 5 ([1]; seed soak 0.005 ppm): 55 #/plant
- Aphids (#/plant) Rep 6 ([1]; seed soak 0.005 ppm): 15 #/plant
- Aphids (#/plant) Rep 1 ([1]; seed soak 0.05 ppm): 70 #/plant
- Aphids (#/plant) Rep 2 ([1]; seed soak 0.05 ppm): 80 #/plant
- Aphids (#/plant) Rep 3 ([1]; seed soak 0.05 ppm): 60 #/plant
- Aphids (#/plant) Rep 4 ([1]; seed soak 0.05 ppm): 35 #/plant
- Aphids (#/plant) Rep 1 ([1]; seed soak 0.5 ppm): 55 #/plant
- Aphids (#/plant) Rep 2 ([1]; seed soak 0.5 ppm): 75 #/plant
- Aphids (#/plant) Rep 3 ([1]; seed soak 0.5 ppm): 65 #/plant
- Aphids (#/plant) Rep 4 ([1]; seed soak 0.5 ppm): 40 #/plant
- Aphids (#/plant) Rep 5 ([1]; seed soak 0.5 ppm): 45 #/plant
- Aphids (#/plant) Rep 6 ([1]; seed soak 0.5 ppm): 30 #/plant
- Aphids (#/plant) Rep 1 ([1]; seed soak 5 ppm): 23 #/plant
- Aphids (#/plant) Rep 2 ([1]; seed soak 5 ppm): 25 #/plant
- Aphids (#/plant) Rep 3 ([1]; seed soak 5 ppm): 33 #/plant
- Aphids (#/plant) Rep 4 ([1]; seed soak 5 ppm): 65 #/plant
- Aphids (#/plant) Rep 5 ([1]; seed soak 5 ppm): 25 #/plant
- Aphids (#/plant) Rep 6 ([1]; seed soak 5 ppm): 32 #/plant
- Aphids (#/plant) Rep 1 ([1]; seed soak 50 ppm): 4 #/plant
- Aphids (#/plant) Rep 2 ([1]; seed soak 50 ppm): 2 #/plant
- Aphids (#/plant) Rep 3 ([1]; seed soak 50 ppm): 2 #/plant
- Aphids (#/plant) Rep 4 ([1]; seed soak 50 ppm): 12 #/plant
- Aphids (#/plant) Rep 5 ([1]; seed soak 50 ppm): 18 #/plant
- Aphids (#/plant) Rep 6 ([1]; seed soak 50 ppm): 2 #/plant
- Effect on plant weight vs check ([2]; Test 1, seed soak): significant increase in plant weight
- Plant Weight (g) Rep 1 ([2]; seed soak 0.005 ppm): 2.36 g
- Plant Weight (g) Rep 2 ([2]; seed soak 0.005 ppm): 1.76 g
- Plant Weight (g) Rep 3 ([2]; seed soak 0.005 ppm): 2.09 g
- Plant Weight (g) Rep 4 ([2]; seed soak 0.005 ppm): 2.22 g
- Plant Weight (g) Rep 5 ([2]; seed soak 0.005 ppm): 1.92 g
- Plant Weight (g) Rep 6 ([2]; seed soak 0.005 ppm): 1.93 g
- Plant Weight (g) Rep 1 ([2]; seed soak 0.05 ppm): 0.73 g
- Plant Weight (g) Rep 2 ([2]; seed soak 0.05 ppm): 1.35 g
- Plant Weight (g) Rep 3 ([2]; seed soak 0.05 ppm): 1.2 g
- Plant Weight (g) Rep 4 ([2]; seed soak 0.05 ppm): 1.1 g
- Plant Weight (g) Rep 1 ([2]; seed soak 0.5 ppm): 1.84 g
- Plant Weight (g) Rep 2 ([2]; seed soak 0.5 ppm): 1.88 g
- Plant Weight (g) Rep 3 ([2]; seed soak 0.5 ppm): 2.04 g
- Plant Weight (g) Rep 4 ([2]; seed soak 0.5 ppm): 2.13 g
- Plant Weight (g) Rep 5 ([2]; seed soak 0.5 ppm): 1.96 g
- Plant Weight (g) Rep 6 ([2]; seed soak 0.5 ppm): 1.8 g
- Plant Weight (g) Rep 1 ([2]; seed soak 5 ppm): 2.23 g
- Plant Weight (g) Rep 2 ([2]; seed soak 5 ppm): 2.1 g
- Plant Weight (g) Rep 3 ([2]; seed soak 5 ppm): 1.79 g
- Plant Weight (g) Rep 4 ([2]; seed soak 5 ppm): 2.53 g
- Plant Weight (g) Rep 5 ([2]; seed soak 5 ppm): 1.87 g
- Plant Weight (g) Rep 6 ([2]; seed soak 5 ppm): 1.9 g
- Plant Weight (g) Rep 1 ([2]; seed soak 50 ppm): 2.29 g
- Plant Weight (g) Rep 2 ([2]; seed soak 50 ppm): 2.22 g
- Plant Weight (g) Rep 3 ([2]; seed soak 50 ppm): 2.12 g
- Plant Weight (g) Rep 4 ([2]; seed soak 50 ppm): 1.87 g
- Plant Weight (g) Rep 5 ([2]; seed soak 50 ppm): 1.87 g
- Plant Weight (g) Rep 6 ([2]; seed soak 50 ppm): 2.14 g
- Plant Weight % increase ([3]; corn seedling weight vs untreated Tween 20 water check, pooled across rates): 38.9%
- Plant Weight (g) Mean ([3]; corn, seed soak, pooled across rates 50-0.19 ppm, fresh weight after 13 days): 3.162 g
- Tukey's pair-wise comparison of corn plant weight with untreated Tween 20 water check ([3]; pooled compound effects, family-wise error rate 0.05): significantly different; also recorded: significantly increased plant weight
